{"source": "paper PMC7465040", "about": "“Cytotoxic and Anti-Plasmodial Activities of Stephania dielsiana Y.C. Wu Extracts and the Isolated Compounds” (Molecules, 2020)", "key": {"[1]": {"tested_on": "Aurora A, B, and C phosphorylation in HeLa cells arrested in mitosis", "assay": "Western blot, autophosphorylation of Aurora kinases", "format": "cell-based, human", "details": "20 μM, 12 h", "protocol": "Western Blot analysis: Western blotting was carried out as described previously. The primary antibodies used were from Cell Signaling (Histone H3; p-Histone H3^S10 and Phospho-Aurora A (Thr288)/Aurora B (Thr232)/Aurora C (Thr198)) and used at recommended dilution. For cell synchronization at prometaphase, HeLa cells were treated with 50 ng/mL nocodazole (NZ) (Santa Cruz Biotechnology) for 12 h. All experiments were carried out at least twice."}, "MCF 10A": {"tested_on": "MCF 10A", "assay": "SRB cell proliferation assay, MCF10A non-cancer cells", "format": "cell-based", "details": "Homo sapiens, read-out: IC50 (μM ± SD) MCF 10A", "protocol": "(§1) In vitro anticancer study: The in vitro anti-proliferative tests were carried out as described previously, using aliquots of the cell lines used therein. Briefly, HeLa, MDA-MB-231 and MDA-MB-468, MCF7, and 184B5 and MCF 10A cell lines were purchased from ATCC. The identity of the cell lines presented in this study were verified by short tandem repeat profiling by Genetica DNA Laboratories (www.celllineauthentication.com) (April 8, 2015). MCF10A was grown in DMEM F12 medium supplemented with 0.02 μg/mL epidermal growth factor, 10% FBS, 10 μg/mL insulin and […] hydrocortisone. MDA-MB-468 were grown in DMEM supplemented with 10% FBS and antibiotics cocktail (100 μg/mL streptomycin, 100 units/mL penicillin and 250 ng/mL amphotericin B). SRB cell proliferation assays were carried out as previously described, with some minor modifications. The concentration range for all tested cell lines were from 100–0.39 μg/mL for extracts and 100–0.39 μM for pure compounds. […] All experiments were carried out at least twice."}, "MDA-MB-468": {"tested_on": "MDA-MB-468", "assay": "SRB cell proliferation assay, MDA-MB-468", "format": "cell-based, human", "protocol": "as §1"}, "MDA-MB-231 cells": {"tested_on": "MDA-MB-231 cells", "assay": "Annexin V staining / IncuCyte apoptosis and proliferation assay", "format": "cell-based, human", "protocol": "Annexin V staining: Cell death mechanism and cell proliferation assays were analysed using the IncuCyte Apoptosis Assay method using the Annexin V Green reagent (Essen Biosciences, Ann Arbor, MI, USA) and the IncuCyte S3 and IncuCyte ZOOM software (Version 2018B, Bohemia, NY, USA) according to supplier’s protocol. Statistical analysis was carried out in Graph Pad Prism 5. All experiments were carried out at least twice."}, "[2]": {"tested_on": "Plasmodium falciparum 3D7 and W2 strains", "assay": "In vitro anti-plasmodial assay, both strains", "format": "cell-based", "protocol": "Parasites were grown in A-positive human blood (Etablissement Français du Sang, Marseille, France) under controlled atmospheric conditions that consisted of 10% O2, 5% CO2, and 85% N2 at 37 °C with a humidity of 95%.\nIn vitro anti-plasmodial assay: The two P. falciparum strains 3D7 and W2 were synchronized twice with sorbitol before use. The clonality of these strains was verified both in our laboratory and in an independent laboratory from the Worldwide Anti-malarial Resistance Network (WWARN) by PCR genotyping of the polymorphic genetic markers msp1 and msp2 and microsatellite loci. The compounds were re-suspended in methanol or DMSO 5% (v/v) and then diluted in methanol to obtain final concentrations ranging from 0.008 to 500 μg/mL (final concentration of 0.5% of methanol or DMSO). […] The plates were incubated for 72 h at 37 °C in controlled atmospheric conditions 5% CO2, 10% O2, and […]. After thawing the plates, haemolysed cultures were homogenized by vortexing the plates. Both the success of the drug susceptibility assay and the appropriate volume of haemolysed culture to use for each assay were determined for each clinical isolate during a preliminary HRP2 ELISA. Both the pre-test and subsequent ELISA assays were performed using a commercial kit (Malaria Ag Celisa, ref KM2159, Cellabs PTY LTD, Brookvale, Australia) according to the manufacturer’s recommendation. The optical density (OD) of each sample was measured with a spectrophotometer (Safire 2, Tecan, Lyon, France). […] The anti-plasmodial in vitro assay was performed five times for each product. The IC50 values represented the mean value calculated from five experiments. According to Hout, a selectivity index (SI) was based on the ratio between anti-parasitic and cytotoxic activities. In the case of our study, a SI was calculated between non-tumorigenic cell line 184B5 and parasites 3D7 or W2 and/or MCF10A and these two parasites."}, "184B5": {"tested_on": "184B5", "assay": "SRB cell proliferation assay, 184B5 non-cancer cells", "format": "cell-based, human", "details": "for IC50: Homo sapiens, 184B5, read-out: IC50 (μM ± SD) 184B5", "protocol": "as §1"}, "[3]": {"tested_on": "HeLa, MDA-MB231, MDA-MB-468, MCF7, 184B5 and MCF10A cell lines", "assay": "SRB cell proliferation assay, whole panel of cell lines", "format": "cell-based, human", "details": "Homo sapiens; cancer and non-cancer cell lines; read-out: IC50 values, range over the cell lines examined", "protocol": "as §1"}}, "note": "Where two headings read alike, the source gives them in different places.", "data": [{"smiles": "COc1cccc2c1C(=O)c1nccc3cc4c(c-2c13)OCO4", "note": "[Oxostephanine 1, oxostephanine]", "values": [{"measurement": "Autophosphorylation of Aurora kinases A, B and C", "setting": "[1]", "value": "inhibits the auto-phosphorylation of all three Aurora kinases"}, {"measurement": "IC50", "setting": "MCF 10A; Table 2A, SRB, 72 h", "value": "2.49 ± 0.11", "unit": "µM"}, {"measurement": "IC50", "setting": "MCF 10A; Table 3, non-cancer cell line", "value": "2.49 ± 0.11", "unit": "µM"}, {"measurement": "IC50", "setting": "MDA-MB-468; Homo sapiens, MDA-MB-468, Table 2A, SRB, 72 h, read-out: IC50 (μM ± SD) MDA-MB-468", "value": "2.26 ± 0.54", "unit": "µM"}, {"measurement": "Selectivity index (SI) 184B5 versus MDA-MB-468", "setting": "MDA-MB-468; Table 2B, non-cancer 184B5 vs cancer MDA-MB-468", "value": 0.73}, {"measurement": "Selectivity index (SI) MCF10A versus MDA-MB-468", "setting": "MDA-MB-468; Table 2B, non-cancer MCF10A vs cancer MDA-MB-468", "value": 1.10}, {"measurement": "Time to inhibition of proliferation", "setting": "MDA-MB-231 cells; MDA-MB-231", "value": "≤ 12", "unit": "h"}, {"measurement": "Apoptotic effect compared to camptothecin", "setting": "MDA-MB-231 cells; MDA-MB-231, 10 μM, 1-way ANOVA p < 0.05", "value": "much stronger apoptotic effect"}, {"measurement": "Time to start of apoptosis (Annexin V)", "setting": "MDA-MB-231 cells; MDA-MB-231, post-treatment", "value": "≤ 16", "unit": "h"}, {"measurement": "Anti-plasmodial activity against both 3D7 and W2 (in words)", "setting": "[2]", "value": "not active"}, {"measurement": "IC50", "setting": "184B5; Table 2A, SRB, 72 h", "value": "1.66 ± 0.56", "unit": "µM"}, {"measurement": "IC50", "setting": "184B5; Table 3, non-cancer cell line", "value": "1.66 ± 0.56", "unit": "µM"}, {"measurement": "Increase in effectiveness compared with stephanine (3), 184B5", "setting": "184B5; ratio of IC50", "value": "~4", "unit": "fold"}, {"measurement": "IC50", "setting": "[3]", "value": "1.66 to 4.35", "unit": "µM"}]}]}
